Source: US20240390377A1, “COMPOSITION FOR THE PREVENTION OR TREATMENT OF NEURODEGENERATIVE OR MOTOR NEURON DISEASES COMPRISING HALOFUGINONE AS AN ACTIVE INGREDIENT” (CURAMYS CO., LTD., priority 2022, published 2024)

Assays:
[1] = tested on: C2C12 cells; assay: Western blot analysis of C2C12 myoblasts (TGF-β1 stimulation, halofuginone treatment); format: cell-based, mouse; conditions: 24 hours of 5 ng/ml TGF-β1 stimulation (FIG. 2b)
Protocol: (§1) Specifically, C2C12 cells (CRL-1772) were purchased from the American Type Culture Collection (ATCC) and maintained in DMEM medium (Welgene) containing 10% (v/v) fetal bovine serum (FBS; Gibco) and 1% penicillin-streptomycin (P/S; Gibco) at 37° C. under 5% CO2 conditions. The C2C12 cells were seeded in 6-well plates at a density of 3×10^5 cells per well and allowed to adhere for 24 hours. Subsequently, the medium was replaced with serum-free medium after 24 hours, followed by stimulation with 5 ng/ml rhTGF-β1 (recombinant human TGF-β1; R&D Systems). After stimulation, the cells were treated with various concentrations (0 [control], or 1, 2.5, 5 [low dose], 10 [high dose], 20, 50, 100 ng/ml) of halofuginone (Sigma) in serum-free medium for 24 hours.
Specifically, the lumbar spinal cord or knee joint of the mouse of Example 6 was separated and immediately frozen at −80° C. Each lumbar spinal cord or knee joint was then homogenized and chemically treated to obtain cells. The chemically treated cells, the C2C12 cells of Example 1 or the fibroblasts of Example 5 were dissolved in a RIPA buffer (Thermo, MA, USA) with a protease inhibitor and a phosphatase inhibitor (Roche, IN, USA) and incubated on ice for 30 minutes. After centrifugation of the lysate at 13,000 rpm at 4° C. for 20 min, insoluble substances were removed. Protein concentrations were measured by BCA analysis (Pierce Biotechnology). Equal volumes of cell lysate were loaded onto SDS-PAGE gels for electrophoresis, and transferred onto nitrocellulose membranes (Amersham Protran 0.2 um NC, Amersham Pharmacia Biotech, Piscataway, NJ, USA). The membranes were then blocked with 5% (w/v) skimmilk in 1×TBST for 1 h at room temperature. After blocking, anti-RB-actin antibody (1:5000; Santa Cruz, cat #sc47778), anti-Smad2 antibody (1:1000; Cell Signaling, cat #5339), anti-p-Smad2 antibody (1:1000; Cell Signaling, cat #3108), anti-TGF-β1 antibody (1:1000; Santa Cruz, cat #sc130348), anti-α-SMA antibody (1:10000; abcam cat #ab7817), anti-MyoD antibody (1:1000; cat #sc377460), anti-collagen|antibody (1:1000; abcam cat #ab21286), anti-cleaved caspase-3 antibody (1:1000; Cell Signaling, cat #9661), anti-bax antibody (1:500; Santa Cruz, cat #sc493), anti-bcl2 antibody (1:1000; Novus Biologics, cat #NB100-56098), anti-ChAT antibody (1:1000; Millipore, cat #AB144) were treated and incubated overnight at 4° C. Subsequently, membranes were washed several times with 1×TBST and incubated with horseradish peroxidase-conjugated secondary antibodies (anti-mouse, rabbit or goat, 1:5000; GE Healthcare) in blocking buffer for 1 h at room temperature (RT). The membranes were then washed, briefly incubated with the SuperSignal West Pico Plus Chemical Substructure (Pierce Biotechnology) according to the manufacturer's procedure, and quantified with an image analyzer (Amersham Pharmacia Biotech, Piscataway, NJ, USA). β-actin was used as an internal control group. The concentration measurement of protein intensity was quantified using Image J (National Institutes of Health).
(§2) Specifically, after treating C2C12 cells with TGF-β1 for 24 hours as in Example 1, real-time qRT-PCR was performed in the same manner as in Example 11 to confirm TGF-β1, 2 and 3, α-SMA and MyoD mRNA expression (FIG. 2a), and Western blot analysis was performed in the same manner as in Example 12 to confirm autocrine expression of TGF-β1 and MyoD protein and α-SMA (FIG. 2b).
Specifically, C2C12 cells were treated with halofuginone after TGF-β1 stimulation or no stimulation in the same manner as described in Example 2, and cell viability analysis was performed through CCK-8 analysis (FIGS. 3a and 3b), and Western blot analysis was performed in the same manner as described in Example 12 to confirm autocrine expression of p-Smad2, Smad2, TGF-β1, MyoD, collagen I protein and α-SMA (FIG. 3c). […]

[2] = tested on: C2C12 cells; assay: Real-time qRT-PCR analysis of C2C12 myoblasts (TGF-β1 stimulation, halofuginone treatment); format: cell-based, mouse; conditions: 24 hours of 5 ng/ml TGF-β1 stimulation, vs control group (FIG. 2a)
Protocol: as §1
Specifically, total RNA was isolated from C2C12 cells in Example 1, fibroblasts in Example 5, and the lumbar spinal cord of mice in Example 6 using the FavorPrep™ Tri-RNA Reagent (Favorgen). The lumbar spinal cord was isolated from the mouse in Example 6 and stored frozen at −80° C. until the experiment. The concentration of total RNA was measured at 260 nm absorbance using a spectrophotometer (NanoDrop Spectrophotometer ND-2000, Thermo Scientific). cDNA was synthesized from 1 μg of total RNA using the ReverTra Ace-α™ (Toyobo) according to the manufacturers protocol. Quantitative RT-PCR was performed using the SYBR Green ExcelTaq™ 2× Fast Q-PCR Master Mix (TQ1200, Smobio) on a thermocycler (CFX Connect Real-Time PCR Detection System, BIO-RAD) with the primers listed in Table 3 below. Fluorescence data were analyzed with Bio-Rad CFX Manager 3.1 software, and control versus relative mRNA expression was calculated by the 2AT) method. Experiments were performed four times on all samples. All primers were designed using Primer3 online software, and GAPDH was used as a control group.
as §2
Specifically, as in Example 1, C2C12 cells were stimulated with TGF-β1 for 24 hours, and then halofuginone was treated for 24 hours, and real-time qRT-PCR was performed in the same manner as in Example 11 to confirm TGF-β1, α-SMA, MyoD, and collagen I (Col-I) mRNA expression (FIG. 4a). In addition, Western blot analysis was performed in the same manner as in Example 12 to confirm TGF-β1, α-SMA, MyoD, and collagen I protein expression (FIG. 4b). In addition, immunocytochemical analysis was performed in the same manner as in Example 3 to confirm α-SMA and MyoD expression (FIG. 4c).

TGF-β1: recombinant human TGF-β1 (R&D Systems) used to stimulate C2C12 myoblasts
significantly decreased: protein expression of MyoD [1] | mRNA level of MyoD [2]
significantly increased: TGF-β1 protein expression [1] | α-SMA protein expression [1] | mRNA expression of α-SMA [2] | mRNA level of TGF-β1 [2] | mRNA level of TGF-β2 [2] | mRNA level of TGF-β3 [2]
